Source: ChEMBL document CHEMBL1146249, “Antiviral 2,5-disubstituted imidazo[4,5-c]pyridines: further optimization of anti-hepatitis C virus activity” (Bioorg Med Chem Lett, 2007)
pEC50: −log10 of the molar value.

Tests used:
[1] = Cytotoxicity against MDBK cells; assay type: cell-based, Bos taurus; conditions: cattle
[2] = Selectivity index, ratio of CC50 for Huh 5-2 cells to EC50 for HCV; assay type: functional
[3] = Cytotoxicity against Huh 5-2 cells; assay type: cell-based; conditions: human
[4] = system: Bovine viral diarrhea virus 1; assay: Antiviral activity against BVDV in MDBK cells; assay type: functional, organism-based; conditions: Bovine viral diarrhea virus isolates and strains
[5] = Selectivity index, ratio of CC50 for MDBK cells to EC50 for BVDV; assay type: functional
Hepatitis C virus = assay: Antiviral activity against HCV in Huh 5-2 cells; assay type: functional, organism-based, Hepacivirus hominis

Q: With `Fc1ccccc1-c1nc2ccn(CCOc3ccccc3)cc-2n1` as the compound, how does the CC50 [1] read?
A: > 104 µM

Q: What about the “Ratio CC50/EC50” value [2] of the same compound?
A: 2

Q: And the CC50 [3]?
A: 96 µM

Q: What about the pEC50 [4] of the same compound?
A: 6.55

Q: What about the “Ratio CC50/EC50” value [5] of the same compound?
A: >371

Q: What about the pEC50 (Hepatitis C virus) of the same compound?
A: 4.32

Q: Which results are given for `Fc1cccc(-c2nc3ccn(Cc4ccc(OC(F)(F)F)cc4)cc-3n2)c1F`?
A: CC50 [1]: > 100 µM; Ratio CC50/EC50 [2]: 405; CC50 [3]: 81 µM; pEC50 [4]: 6.70; Ratio CC50/EC50 [5]: >500; pEC50 (Hepatitis C virus): 6.70
